Assay results published in patent US20070281046A1, “Method for removing organic contaminants from Chinese herb medicines” (Committee on Chinese Medicine and Pharmacy, Department of …, priority 2006, published 2007).
Marks after values point to notes of the source that are not given here.

Tests used:
[1] = Degradation of nine organochlorine pesticides by gamma irradiation in samples of P. quinquefolium (GC analysis); format: physicochemical; conditions: for remaining concentration of organochlorine pesticides in samples: P. quinquefolium samples, mean of three; for proportion of pesticide degraded: gamma irradiation of P. quinquefolium samples, dose not stated in the sentence (matches 25 kGy of Table 1)
From the text: The nine organochlorine pesticides that included Aldrin, Lindane, Heptachlor, Endosulfan-1, Endosulfan-2, o,p′-DDD), p,p′-DDD, p,p′-DDE, and p,p′-DDT were simultaneously prepared in a n-hexane solution. Subsequently, the n-hexane solution that contained the aforesaid organochlorine pesticides was evenly sprayed into samples of P. quinquefolium; the concentration of each of the nine organochlorine pesticides contained in the samples was approximately 0.5 ppm. The samples were cut into pieces with scissors, and then divided into separate packs that weighed 10 g, respectively; the packs were subjected to gamma irradiation of different dosages ranging from 0, 5, 10, 15, 20, and 25 kGy, and followed by the analysis of concentration of the aforesaid organochlorine pesticides. […] Solution was extracted from the samples by using 70% aqueous acetone, and then the extracted solution was subjected to filtration, a decrease in pressure, and condensation in order to remove acetone, followed by the addition of hydrochloric acid and n-hexane to bring the extracted solution to 100 ml, so that the organochlorine pesticides were distributed to the organic layer. Consequently, magnesium silicate was added into the resulted solution in order to depigment and purify it, and once the solution has undergone a decrease in pressure and condensation again for drying, it was brought to 5 ml by adding n-hexane solution to prepare it for gas chromatography (GC) analysis. After undergoing centrifugation, 2 μl of the resulted solution was taken for GC analysis to find out the respective concentration of each of the aforesaid organochlorine pesticides remaining in the samples after receiving various dosages of gamma irradiation.

[2] = Concentration of marker components (ginsenosides) in P. quinquefolium samples after gamma irradiation (HPLC); format: physicochemical; conditions: for concentration of marker components of P. quinquefolium (ginsenoside): mean ± SD, three repeats; for effect of gamma irradiation on concentration of marker components: 10 kGy and 15 kGy gamma irradiation, P. quinquefolium samples
Experimental: Samples of P. quinquefolium that have respectively received gamma irradiation in dosages of 0, 10, 15, and 20 kGy were analyzed to find out the concentration of marker components therein, with the samples that have not received gamma irradiation as the control group. To extract marker components from the samples for analysis, 10 g of the samples were taken and prepared in 50 ml of 70% aqueous methanol solution, and heated in a convection heater at 60° C. for 15 minutes, followed by centrifugation in order to obtain the extract solution. Subsequently, the residual of the samples were subjected to the above-mentioned procedure again, and the extracted solution from the two rounds of procedures were mixed together and filtered, followed by the addition of 70% aqueous methanol solution to bring the volume up to 100 ml; the resulted solution was then stored at −20° C. and analyzed within 3 days. Before carrying out the analysis of ingredients, an adequate amount of the resulted solution was underwent filtration through a 0.22 μm pore size membrane, and then 20 μl of the solution was injected into a high performance liquid chromatographer for analysis (HPLC, Waters model 2695) each time; the analyses were carried out in combination with UV light—Visible light sensor of Waters model 2487, and a silicon-based reverse phase C-18 column (Cosmosil 5C18-MS-II, 5 μm, 4.6×250 mm, Nacalai Tesque, Inc., Kyoto, Japan) was used for analyzing the marker components of P. quinquefolium in the solution. The marker components of P. quinquefolium tested in the experiment included ginsenoside Rb1, ginsenoside Rg1, ginsenoside Rc, ginsenoside Rd, and ginsenoside Re; the detection wavelength of UV light was 203 ηm. The solution of 15% aqueous phosphoric acid (H3PO4)—acetonitrile (CH3CN) (81:19 to 60:40) was used as the moving phase, and the moving phase was analyzed at 25° C. and 1.0 ml/min of flow velocity after being filtered with a 0.45 μm filtration membrane, so as to measure the concentration of the marker components in samples of P. quinquefolium that received various dosages of gamma irradiation.

[3] = 0 kGy gamma irradiation (control group)

Row | concentration of marker components of P. quinquefolium (ginsenoside) [2, 3] | effect of gamma irradiation on concentration of marker components [2] | concentration of marker components of P. quinquefolium (ginsenoside) ([2]; 10 kGy gamma irradiation) | concentration of marker components of P. quinquefolium (ginsenoside) ([2]; 15 kGy gamma irradiation) | concentration of marker components of P. quinquefolium (ginsenoside) ([2]; 20 kGy gamma irradiation) | Structure (SMILES) | remaining concentration of organochlorine pesticides in samples [1, 3] | remaining concentration of organochlorine pesticides in samples ([1]; 5 kGy gamma irradiation) | remaining concentration of organochlorine pesticides in samples ([1]; 10 kGy gamma irradiation) | remaining concentration of organochlorine pesticides in samples ([1]; 15 kGy gamma irradiation) | remaining concentration of organochlorine pesticides in samples ([1]; 20 kGy gamma irradiation) | remaining concentration of organochlorine pesticides in samples ([1]; 25 kGy gamma irradiation) | proportion of pesticide degraded [1]
1 | – | – | – | – | – | ClC1=C(Cl)C2(Cl)C3C(Cl)C=CC3C1(Cl)C2(Cl)Cl (stereo not drawn) [Heptachlor] | 0.532 ppm | 0.421 ppm | 0.319 ppm | 0.254 ppm | 0.195 ppm | 0.142 ppm | –
2 | – | – | – | – | – | ClC1=C(Cl)C2(Cl)C3C4C=CC(C4)C3C1(Cl)C2(Cl)Cl (stereo not drawn) [Aldrin] | 0.532^a) ppm | 0.376 ppm | 0.279 ppm | 0.218 ppm | 0.168 ppm | 0.123 ppm | –
3 | – | – | – | – | – | Clc1ccc(C(c2ccc(Cl)cc2)C(Cl)(Cl)Cl)cc1 [p,p′-DDT] | 0.520 ppm | 0.344 ppm | 0.242 ppm | 0.178 ppm | 0.127 ppm | 0.082 ppm | 84%
4 | 15.98 ± 0.50 mg/g | would not affect | 15.79 ± 0.21 mg/g | 15.04 ± 0.33 mg/g | 14.53 ± 0.14 mg/g | CC(C)=CCC[C@](C)(O[C@@H]1O[C@H](CO)[C@@H](O)[C@H](O)[C@H]1O)[C@H]1CC[C@]2(C)[C@@H]1[C@H](O)C[C@@H]1[C@@]3(C)CC[C@H](O)C(C)(C)[C@@H]3[C@@H](O[C@@H]3O[C@H](CO)[C@@H](O)[C@H](O)[C@H]3O[C@@H]3O[C@@H](C)[C@H](O)[C@@H](O)[C@H]3O)C[C@]12C [Re, ginsenoside Re] | – | – | – | – | – | – | –
5 | – | – | – | – | – | O=S1OC[C@@H]2[C@H](CO1)[C@]1(Cl)C(Cl)=C(Cl)[C@]2(Cl)C1(Cl)Cl (stereo partly drawn) [Endosulfan-2] | 0.515 ppm | 0.359 ppm | 0.263 ppm | 0.198 ppm | 0.144 ppm | 0.093 ppm | –
6 | – | – | – | – | – | Cl[C@H]1[C@H](Cl)[C@@H](Cl)[C@@H](Cl)[C@H](Cl)[C@H]1Cl [Lindane] | 0.549 ppm | 0.383 ppm | 0.278 ppm | 0.206 ppm | 0.147 ppm | 0.089 ppm | 84%
7 | 16.12 ± 0.47 mg/g | would not affect | 15.91 ± 0.43 mg/g | 15.08 ± 0.27 mg/g | 14.46 ± 0.28 mg/g | CC(C)=CCC[C@](C)(O[C@@H]1O[C@H](CO[C@@H]2O[C@@H](CO)[C@H](O)[C@H]2O)[C@@H](O)[C@H](O)[C@H]1O)[C@H]1CC[C@]2(C)[C@@H]1[C@H](O)C[C@@H]1[C@@]3(C)CC[C@H](O[C@@H]4O[C@H](CO)[C@@H](O)[C@H](O)[C@H]4O[C@@H]4O[C@H](CO)[C@@H](O)[C@H](O)[C@H]4O)C(C)(C)[C@@H]3CC[C@]12C [Rc, ginsenoside Rc] | – | – | – | – | – | – | –
8 | – | – | – | – | – | Clc1ccc(C(c2ccc(Cl)cc2)C(Cl)Cl)cc1 [p,p′-DDD] | 0.502 ppm | 0.370 ppm | 0.282 ppm | 0.227 ppm | 0.179 ppm | 0.147 ppm | –
9 | – | – | – | – | – | ClC(Cl)=C(c1ccc(Cl)cc1)c1ccc(Cl)cc1 [p,p′-DDE] | 0.544 ppm | 0.404 ppm | 0.313 ppm | 0.249 ppm | 0.195 ppm | 0.145 ppm | –
10 | – | – | – | – | – | O=S1OC[C@@H]2[C@H](CO1)[C@@]1(Cl)C(Cl)=C(Cl)[C@]2(Cl)C1(Cl)Cl (stereo partly drawn) [Endosulfan-1] | 0.519 ppm | 0.392 ppm | 0.311 ppm | 0.251 ppm | 0.192 ppm | 0.140 ppm | –
11 | 9.02 ± 0.32 mg/g | would not affect | 8.77 ± 0.15 mg/g | 8.44 ± 0.25 mg/g | 8.20 ± 0.17 mg/g | CC(C)=CCC[C@](C)(O[C@@H]1O[C@H](CO)[C@@H](O)[C@H](O)[C@H]1O)[C@H]1CC[C@]2(C)[C@@H]1[C@H](O)C[C@@H]1[C@@]3(C)CC[C@H](O[C@@H]4O[C@H](CO)[C@@H](O)[C@H](O)[C@H]4O[C@@H]4O[C@H](CO)[C@@H](O)[C@H](O)[C@H]4O)C(C)(C)[C@@H]3CC[C@]12C [Rd, ginsenoside Rd] | – | – | – | – | – | – | –
12 | 1.56 ± 0.09 mg/g | would not affect | 1.56 ± 0.06 mg/g | 1.47 ± 0.03 mg/g | 1.43 ± 0.02 mg/g | CC(C)=CCC[C@](C)(O[C@@H]1O[C@H](CO)[C@@H](O)[C@H](O)[C@H]1O)[C@H]1CC[C@]2(C)[C@@H]1[C@H](O)C[C@@H]1[C@@]3(C)CC[C@H](O)C(C)(C)[C@@H]3[C@@H](O[C@@H]3O[C@H](CO)[C@@H](O)[C@H](O)[C@H]3O)C[C@]12C [Rg1, ginsenoside Rg1] | – | – | – | – | – | – | –
13 | – | – | – | – | – | Clc1ccc(C(c2ccccc2Cl)C(Cl)Cl)cc1 (stereo not drawn) [o,p′-DDD] | 0.476 ppm | 0.337 ppm | 0.250 ppm | 0.196 ppm | 0.155 ppm | 0.119 ppm | –
14 | 31.37 ± 0.15^a) mg/g | would not affect | 31.01 ± 0.11 mg/g | 30.59 ± 0.63 mg/g | 29.39 ± 0.36 mg/g | CC(C)=CCC[C@](C)(O[C@@H]1O[C@H](CO[C@@H]2O[C@H](CO)[C@@H](O)[C@H](O)[C@H]2O)[C@@H](O)[C@H](O)[C@H]1O)[C@H]1CC[C@]2(C)[C@@H]1[C@H](O)C[C@@H]1[C@@]3(C)CC[C@H](O[C@@H]4O[C@H](CO)[C@@H](O)[C@H](O)[C@H]4O[C@@H]4O[C@H](CO)[C@@H](O)[C@H](O)[C@H]4O)C(C)(C)[C@@H]3CC[C@]12C [Rb1, ginsenoside Rb1] | – | – | – | – | – | – | –
